Reference: US12178822B2, “Methods of treating hematological malignancies using 2-(2,6-dioxopiperidin-3-yl)-4-((2-fluoro-4-((3-morpholinoazetidin-1-yl)methyl)benzyl)amino)isoindoline-1,3-dion” (Celgene Corporation, priority 2019, dated 2024)

How the values were obtained:
Assay type in all cases: cell-based
Karpas-299 = assay: Cell proliferation and viability / apoptosis flow cytometry assay, Karpas-299; conditions: Karpas-299 (TCL); 120 hours
Procedure: (§1) The following are examples of cell-based assays that can be used to determine the anti-proliferative activity and apoptotic effect of compounds described herein using exemplary hematological cell lines (Table 1). The in vitro growth inhibitory activity of Compound 1 described herein was evaluated using a 384-well flow cytometry assay.
(§2) The cell lines were plated under the conditions shown in Table 1 in 384-well flat bottom plates and incubated with increasing concentrations of compound ranging from 0.00015 to 10 μM or dimethyl sulfoxide (DMSO) control. The final concentration of DMSO was 0.1% (v/v). Following the addition of Compound 1 or DMSO and incubation for 120 hours, cell number and cell death were analyzed by flow cytometry (Attune®, Thermo Fisher) using Annexin V and the live-cell impermeant DNA dye, DRAQ7. […]
(§3) Flow cytometry data analysis was then performed using the Flow Jo_v10 software to determine the number of viable cells (Annexin V and DRAQ7 double negative staining cells) and percentage of apoptotic cells (Annexin V positive cells) for each condition. […] The IC50 (50% inhibitory concentration) and Emax (maximum efficacy achieved) values were then calculated by performing nonlinear regression curve fitting using log(inhibitor) vs. normalized response—variable slope analysis on GraphPad Prism 7.03. […]

SVSL/VL51 = assay: Cell proliferation and viability / apoptosis flow cytometry assay, SVSL; conditions: SVSL (MZL, SMZL); 120 hours
Procedure: as §1, §2, §3

MDS-L = assay: Cell proliferation and viability / apoptosis flow cytometry assay, MDS-L; conditions: 120 hours
Procedure: as §1, §2, §3

NCI-H929 = assay: Cell proliferation and viability / apoptosis flow cytometry assay, NCI-H929; conditions: NCI-H929 (MM); 120 hours
Procedure: as §1, §2, §3

JJN-3 = assay: Cell proliferation and viability / apoptosis flow cytometry assay, JJN-3; conditions: JJN-3 (MM, PCL); 120 hours
Procedure: as §1, §2, §3

OPM-2 = assay: Cell proliferation and viability / apoptosis flow cytometry assay, OPM-2; conditions: OPM-2 (MM); 120 hours
Procedure: as §1, §2, §3

Karpas-231 = assay: Cell proliferation and viability / apoptosis flow cytometry assay, Karpas-231; conditions: Karpas-231 (ALL); 120 hours
Procedure: as §1, §2, §3

KOPN-8 = assay: Cell proliferation and viability / apoptosis flow cytometry assay, KOPN-8; conditions: KOPN-8 (ALL); 120 hours
Procedure: as §1, §2, §3

SK-MM-1 = assay: Cell proliferation and viability / apoptosis flow cytometry assay, SK-MM-1; conditions: SK-MM-1 (MM, PCL); 120 hours
Procedure: as §1, §2, §3

Daudi = assay: Cell proliferation and viability / apoptosis flow cytometry assay, Daudi; conditions: Daudi (BL); 120 hours
Procedure: as §1, §2, §3

HNT-34 = assay: Cell proliferation and viability / apoptosis flow cytometry assay, HNT-34; conditions: HNT-34 (AML); 120 hours
Procedure: as §1, §2, §3

HuT-102 = assay: Cell proliferation and viability / apoptosis flow cytometry assay, HuT-102; conditions: HuT-102 (TCL); 120 hours
Procedure: as §1, §2, §3

L-428 = assay: Cell proliferation and viability / apoptosis flow cytometry assay, L-428; conditions: L-428 (HL); 120 hours
Procedure: as §1, §2, §3

L-591 = assay: Cell proliferation and viability / apoptosis flow cytometry assay, L-591; conditions: L-591 (HL); 120 hours
Procedure: as §1, §2, §3

BL-41 = assay: Cell proliferation and viability / apoptosis flow cytometry assay, BL-41; conditions: 120 hours
Procedure: as §1, §2, §3

L-363 = assay: Cell proliferation and viability / apoptosis flow cytometry assay, L-363; conditions: L-363 (MM, PCL); 120 hours
Procedure: as §1, §2, §3

O=C1CC[C@H](N2C(=O)c3cccc(NCc4ccc(CN5CC(N6CCOCC6)C5)cc4F)c3C2=O)C(=O)N1 [Compound 1, (S)-2-(2,6-dioxopiperidin-3-yl)-4-((2-fluoro-4-((3-morpholinoazetidin-1-yl)methyl)benzyl)amino)isoindoline-1,3-dione]
% Viable Cells Emax (percentage of tumor cells remaining) (Karpas-299): 8.43% | % Viable Cells Emax (percentage of tumor cells remaining) (SVSL/VL51): 34.07% | % Viable Cells Emax (percentage of tumor cells remaining) (MDS-L): 146.7% | % Viable Cells Emax (percentage of tumor cells remaining) (NCI-H929): 6.1% | % Viable Cells Emax (percentage of tumor cells remaining) (JJN-3): 21.6% | % Viable Cells Emax (percentage of tumor cells remaining) (OPM-2): 6.65% | % Viable Cells Emax (percentage of tumor cells remaining) (Karpas-231): 0% | % Viable Cells Emax (percentage of tumor cells remaining) (KOPN-8): 38.3% | % Viable Cells Emax (percentage of tumor cells remaining) (SK-MM-1): 3% | % Viable Cells Emax (percentage of tumor cells remaining) (Daudi): 0% | % Viable Cells Emax (percentage of tumor cells remaining) (HNT-34): 20.47% | % Viable Cells Emax (percentage of tumor cells remaining) (HuT-102): 36.34% | % Viable Cells Emax (percentage of tumor cells remaining) (L-428): 47.3% | % Viable Cells Emax (percentage of tumor cells remaining) (L-591): 34.6% | % Viable Cells Emax (percentage of tumor cells remaining) (BL-41): 96.65% | % Viable Cells Emax (percentage of tumor cells remaining) (L-363): 27.6%
